Results taken from patent US9096607B2, “Tumor necrosis factor inhibitors” (THE TRUSTEES OF THE UNIVERSITY OF PENNSYLVANIA, priority 2005, dated 2015).

Legend:
mutant TNF-R1 = molecular target: T1, mutant TNF-R1 (Homo sapiens, UniProt P19438, F141E/Q111E); assay: Isothermal titration calorimetry, binding to mutant TNF-R1 (82E, 112E); conditions: ITC, TNF-R1 mutated to 82E and 112E
T1 construct: The ectodomain of wild type TNF receptor 1 was obtained by PCR from pKP13; made in house
T1 sequence (P19438 30-211 Q111E/F141E limits assumed): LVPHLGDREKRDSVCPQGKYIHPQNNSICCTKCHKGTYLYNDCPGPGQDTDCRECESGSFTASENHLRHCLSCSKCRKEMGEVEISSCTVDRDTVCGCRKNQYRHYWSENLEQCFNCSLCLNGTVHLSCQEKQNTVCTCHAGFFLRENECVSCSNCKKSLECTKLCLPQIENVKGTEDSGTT
Description: The ectodomain of wild type TNF receptor 1 was obtained by PCR from pKP13 (as described in Beutler et al., Annu. Rev. Biochem. 57, 505-518 (1988)) with 5′ primer AAAAAACATATGTACCCCTCAGGGGTTATTGG (SEQ ID NO:2) and 3′ primer CCGCTCGAGTCAATGATGATG ATGATG ATGTGTGGTGCCTGAGTCCTCAG, (SEQ ID NO:3) and constructed into PET21 (Novagen, San Diego, Calif.) between Nde1 and XhoT, verified by sequencing. Mutant TNF receptor 1 was obtained from site-directed mutagenesis by using a QuikChange mutagenesis kit (Stratagene, La Jolla, Calif.). The plasmid was then transformed into Origami™ (DE3) (Novagen, San Diego, Calif.). The cells were grown until A600 was 0.6 and were induced by addition of 0.2 mM of IPTG. The cells were then induced for 3 h and harvested by centrifugation at 3500 rpm for 10 min. The wild type and mutant TNF-R1 were all expressed in the inclusion bodies of the cells and were extracted and refolded as described in Lin et al., Biotechniques 11, 748 (December 1991). […]
The binding thermodynamics of inhibitors to the TNF receptor was measured by isothermal titration calorimetry (ITC) using a high-precision VP-ITC titration calorimetric system (MicroCal Inc, Northampton, Mass.). […] Data were analyzed and fitted using the data analysis software supplied by MicroCal (Origin version 5.0).

L929 cells = assay: Inhibition of TNF-α mediated cytolysis of L929 cells (Alamar Blue); format: cell-based, murine; conditions: TNF-α 100 pg/mL, actinomycin D 1 μM
Description: L929 cultured murine fibroblasts cells were obtained from American Type Culture Collection (Manassas, Va.). Tissue culture reagents were from Invitrogen or Sigma-Aldrich. TNF-α and Actinomycin D were from Sigma-Aldrich. Alamar Blue reagents (Cell Titer Blue™) were from Promega. The test compounds I-1 through I-16, II-1 through II-8, and III-1 through III-3 were obtained commercially or can be prepared as described above. The test compounds were individually dissolved in dimethylsulfoxide (DMSO). The test compounds were maintained at 4° C. when not in use. Other reagents were high-purity (ACS-grade, HPLC-grade, MilliQ water, or similar).
Stock L929 cells were grown on tissue culture plastic in complete DMEM (Dulbecco's Modified Eagles Medium) supplemented with 10% FBS (Fetal Bovine Serum), NEAA (non-essential amino acids), and glutamine. L929 cells were plated using the same medium on 96-well tissue culture plates at high density (i.e., ˜4×10^4 cells/well, or similar) before use.
Approximately 20 h after plating, the L929 cells on 96-well plates were re-fed with fresh medium containing one of the test compounds in a concentration selected from 100 μM, 50 μM, 25 μM as a “pre-treatment.” Approximately 30-60 min later, samples were treated with an additional amount of test compound (in the same amount and at the same concentration as the pre-treatment) prepared in medium containing TNF-α (200 pg/mL), and actinomycin D (2 μM). The final concentration of TNF-α in assays was 100 pg/mL. The final concentration of actinomycin D in assays was 1 μM. The plates were incubated for an additional 22-23 h, the Alamar Blue assay reagents were added and metabolic cell viability was determined from reduction of a fluorogenic Alamar Blue derivative.
The temperature was maintained at 37° C. with 5% CO2 and humidified. The metabolic viability was measured 1-2 h after addition of assay reagents/Alamar Blue derivative using TECAN SaFire fluorescence plate reader (Tecan Group Ltd., Maennedorf, Switzerland).
Inhibition of TNF-α induced cytolysis by a test compound (X) at a given concentration (y) was calculated as follows: […]

With `CC(=O)Oc1ccc(C(C)(c2ccc(OC(C)=O)cc2)c2ccc(OC(C)=O)cc2)cc1` [Compound I-9, 1,1,1-Tris-(4-acetoxyphenyl)ethane] the “binding to the mutant receptor” value (mutant TNF-R1) was “no longer bound”, the “% Inhibition at: 25 μM” value (L929 cells; 25 μM compound) was 37.2% and the “% Inhibition at: 50 μM” value (L929 cells; 50 μM compound) was 65.2%. The “% Inhibition at: 100μM” value (L929 cells; 100 μM compound) was 50.9%.
